From patent US4398937A, “Selective algaecides for control of cyanochloronta” (The University of Southern Mississippi, priority 1981, dated 1983)
Read-outs that look alike come from different tables or passages of the source.

How the values were obtained:
Format in all cases: cell-based
Anabaena flos-aquae [1] = experiment: Test tube culture inhibition of Anabaena flos-aquae, algal units/ml
Protocol: (§1) The algae used in this particular study were Chlamydomonas sp., Chlorella vulgaris, Anabaena sp., and Anabaena flos-aquae. Cultures of these algae were obtained, subcultured, and aqueous stocks of algae in 400 ml BBM were prepared and were used in log phase growth to innoculate test cultures.
(§2) The fatty acids which were tested as algal inhibitors were 9, 10-dihydroxystearic acid, linoleic acid, dodecanoic acid, and ricinoleic acid.
(§3) The test procedure involved placing 15 ml of BBM into 25 ml test tubes and innoculating them with 0.2 ml of algal stock solution. Twenty test tubes were innoculated with each algae. Four of these cultures were used with each concentration of each of the fatty acids. Four tubes from each set served as controls. Four concentrations of the fatty acids were used for each alga. The concentrations studied were 0.5 PPM, 1.0 PPM, 5.0 PPM, and 10.0 PPM.
(§4) Algal cultures were incubated under constant light of about 200 foot-candles and at a temperature of 68° F. Bold's Basal Medium (BBM), a modification of Bristol's solution was the medium in which all the cultures were grown. Bold's Basal Medium was prepared as follows:
(§5) Concentrations of fatty acids and the amount of stock solution used to prepare them were as follows:
(§6) Each test tube contained 15 ml sterile BBM. To this was added an aliquot of 0.2 of algal stock solution. Then the appropriate aliquots of warm acid stock solution were added to the appropriate number of culture tubes. These cultures were then incubated 5 days and at that point were counted. The same cultures were also counted after a 12 day growth period.
(§7) Stock solutions of the fatty acids to be tested as algal inhibitors were made from a stock solution of 5% sodium bicarbonate in glass-distilled water. The 5% sodium bicarbonate stock solution was made by dissolving 150 grams of sodium bicarbonate in 3000 ml of glass-distilled water. To insure complete dissolution, the solution was heated and stirred on a magnetic stirrer hot plate. The warm solution was used in preparing the fatty acid stock solutions.
(§8) Quanitative phytoplankton values were determined using the random field method. Filaments, colonies, and aggregations of cells were recorded as algal units. Each unit consisted of approximately 6 cells. Unicellular algae were counted as separate units. Algal counts were made from each of three duplicate cultures. One ml of the algal sample was placed in a Sedgwick-Rafter counting chamber, which is 50 mm long by 20 mm, wide by 1 mm deep. A Wild Heerbrugg, compound microscope with a Whipple grid eyepiece was used to determine quantitative algae values.
(§9) One ml of the algal solution was placed in the counting chamber, and two drops of methyl cellulose were added to minimize the movement of Chlamydomonas sp. Ten random fields were counted and all organisms within the Whipple grid field were enumerated.
(§10) The following formula used to calculate the numbers per milliliter from the field counts: [formula] where: C=number of organisms counted,
(§11) The area of the Whipple grid used was 0.46 mm^2, and the depth of a field was 1 mm. Results of the counts were reported as algal units/ml.

Chlorella vulgaris [2] = experiment: Test tube culture inhibition of Chlorella vulgaris, algal units/ml
Protocol: as §1, §2, §3, §4, §5, §6, §7, §8, §9, §10, §11

Anabaena sp. = experiment: Test tube culture inhibition of Anabaena sp., algal units/ml
Protocol: as §1, §2, §3, §4, §5, §6, §7, §8, §9, §10, §11

Chlamydomonas sp. = experiment: Test tube culture inhibition of Chlamydomonas sp., algal units/ml
Protocol: as §1, §2, §3, §4, §5, §6, §7, §8, §9, §10, §11

Chlorella vulgaris [3] = experiment: 300 ml batch culture of Chlorella vulgaris, visual; details: batch cultures, all concentrations
Protocol: (§12) As a means of visually confirming some of the results batch cultures of 300 ml. of Anabaena flos-aquae and Chlorella vulgaris were grown.

Anabaena flos-aquae [4] = experiment: 300 ml batch culture of Anabaena flos-aquae, visual
Protocol: as §12

[5] = 5 and 12 days, all concentrations

## CCCCCC[C@@H](O)C/C=C\CCCCCCCC(=O)O [Ricinoleic Acid, ricinoleic acid]
Anabaena flos-aquae [1]; [5]
  effect on algal growth: inhibitory effect
Anabaena flos-aquae [1]; 5 days, 0.5 PPM
  Algal units/ml: 435 units/ml
Anabaena flos-aquae [1]; 5 days, 1.0 PPM
  Algal units/ml: 1087 units/ml
Anabaena flos-aquae [1]; 5 days, 5.0 PPM
  Algal units/ml: 1087 units/ml
Anabaena flos-aquae [1]; 5 days, 10.0 PPM
  Algal units/ml: 652 units/ml
Anabaena flos-aquae [1]; 12 days, 0.5 PPM
  Algal units/ml: 10217 units/ml
Anabaena flos-aquae [1]; 12 days, 1.0 PPM
  Algal units/ml: 6522 units/ml
Anabaena flos-aquae [1]; 12 days, 5.0 PPM
  Algal units/ml: 4783 units/ml
Anabaena flos-aquae [1]; 12 days, 10 PPM
  reduction in number of algal units/ml vs control: 38,261 algal units/ml
Anabaena flos-aquae [1]; 12 days, 10.0 PPM
  Algal units/ml: 3043 units/ml
Anabaena flos-aquae [1]; Dolichospermum flos-aquae, 288 h, 12 days, 10 PPM, read-out: reduction in number of algal units/ml, % of the control
  inhibition of growth at 10 ppm: 92.6%
Chlorella vulgaris [2]; 5 days, 0.5 PPM
  Algal units/ml: 20217 units/ml
Chlorella vulgaris [2]; 5 days, 1.0 PPM
  Algal units/ml: 21739 units/ml
Chlorella vulgaris [2]; 5 days, 5.0 PPM
  Algal units/ml: 22391 units/ml
Chlorella vulgaris [2]; 5 days, 10.0 PPM
  Algal units/ml: 20870 units/ml
Chlorella vulgaris [2]; 12 days, 0.5 PPM
  Algal units/ml: 217391 units/ml
Chlorella vulgaris [2]; 12 days, 1.0 PPM
  Algal units/ml: 326087 units/ml
Chlorella vulgaris [2]; 12 days, 5.0 PPM
  Algal units/ml: 326087 units/ml
Chlorella vulgaris [2]; 12 days, 10.0 PPM
  Algal units/ml: 326087 units/ml
Chlorella vulgaris [2]; Chlorella vulgaris, 120 h, 5 days, 0.5 PPM, read-out: more algal units/ml than in the control
  activation at 0.5 ppm: 86%
Chlorella vulgaris [2]; Chlorella vulgaris, 288 h, 12 days, 10 PPM, read-out: more algal units/ml than in the control
  activation at 10 ppm: 50%
Chlorella vulgaris [2]; all concentrations at 5 days, 5 and 10 PPM at 12 days
  effect on algal growth: stimulatory effect
Anabaena sp.; 120 h, 5 days, 5.0 PPM, read-out: reduction of algal units/ml, % of the control
  inhibition of growth at 5 ppm: 15.6%
Anabaena sp.; 120 h, 5 days, 10.0 PPM, read-out: reduction of algal units/ml, % of the control
  inhibition of growth at 10 ppm: 30.6%
Anabaena sp.; 5 days, 0.5 PPM
  Algal units/ml: 36522 units/ml
Anabaena sp.; 5 days, 1.0 PPM
  Algal units/ml: 35652 units/ml
Anabaena sp.; 5 days, 5.0 PPM
  Algal units/ml: 26957 units/ml
Anabaena sp.; 5 days, 10.0 PPM
  Algal units/ml: 22174 units/ml
  reduction in algal units/ml vs control: 9,783 algal units/ml
Anabaena sp.; 288 h, 12 days, 0.5 PPM (so in the source), read-out: reduction of algal units/ml, % of the control
  inhibition of growth at 0.5 ppm: 59.7%
Anabaena sp.; 288 h, 12 days, 10 PPM, read-out: reduction of algal units/ml, % of the control
  inhibition of growth at 10 ppm: 65.2%
Anabaena sp.; 12 days, 0.5 PPM
  Algal units/ml: 97391 units/ml
Anabaena sp.; 12 days, 0.5 PPM (so in the source)
  reduction of algal units/ml vs control: 70,434 algal units/ml
Anabaena sp.; 12 days, 1.0 PPM
  Algal units/ml: 81957 units/ml
Anabaena sp.; 12 days, 5.0 PPM
  Algal units/ml: 47609 units/ml
Anabaena sp.; 12 days, 10 PPM
  reduction of algal units/ml vs control: 76,956 algal units/ml
Anabaena sp.; 12 days, 10.0 PPM
  Algal units/ml: 41087 units/ml
Anabaena sp.; concentrations of 1.0 PPM or less
  effect on growth: stimulatory effect
Chlamydomonas sp.; [5]
  effect on algal growth: stimulatory effect
Chlamydomonas sp.; 5 days
  concentration of maximum stimulatory effect: 5.0 PPM
Chlamydomonas sp.; 5 days, 0.5 PPM
  Algal units/ml: 18696 units/ml
Chlamydomonas sp.; 5 days, 1.0 PPM
  Algal units/ml: 29130 units/ml
Chlamydomonas sp.; 5 days, 5.0 PPM
  Algal units/ml: 32609 units/ml
Chlamydomonas sp.; 5 days, 10.0 PPM
  Algal units/ml: 13043 units/ml
Chlamydomonas sp.; 12 days
  concentration of maximum stimulatory effect: 0.5 PPM
Chlamydomonas sp.; 12 days, 0.5 PPM
  Algal units/ml: 65217 units/ml
Chlamydomonas sp.; 12 days, 1.0 PPM
  Algal units/ml: 63043 units/ml
Chlamydomonas sp.; 12 days, 5.0 PPM
  Algal units/ml: 52174 units/ml
Chlamydomonas sp.; 12 days, 10.0 PPM
  Algal units/ml: 54348 units/ml
Chlamydomonas sp.; Chlamydomonas, 120 h, read-out: increase in number of algal units/ml of the control
  activation at 5 ppm: 183%
Chlorella vulgaris [3]
  inhibition (visual): no inhibition was noticed
Anabaena flos-aquae [4]; 1 PPM
  inhibition (visual): slightly inhibited
Anabaena flos-aquae [4]; 10 PPM
  inhibition (visual): greatly inhibited
